Test results from patent EP4781984A1 (Beyang Therapeutics Co., Ltd., priority 2023, dated 2025).
≈ marks a conversion by molar mass, not a printed value. Entries after “also recorded” stand apart in the source; their conditions may differ.

What was measured:
[1] = background statement on the known drug; cited from earlier work
[2] = Thermodynamic solubility test; type: physicochemical; conditions: buffer solution, aqueous buffer, thermodynamic from solid
Method in brief: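 Samples sonicated 10 min, shaken 8 h at room temperature, re-sonicated and centrifuged at 13000 rpm for 15 min. Supernatant recentrifuged and analysed by LC-MS, with concentrations quantified against a 3–5 point calibration curve.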

[3] = Plasma and ocular tissue distribution after single ocular administration in Dutch Belted rabbits (Example 6); type: in vivo; conditions: single eye drop 1 mg/mL (0.05 mg/eye, 50 µL/eye), 0.5, 4 or 8 hours
Text: Detection of Plasma and Ocular Tissue Distribution of Compounds after Single Ocular Administration in Dutch Belted Rabbits
Age-related macular degeneration and diabetic retinopathy are associated with neovascularization in the posterior segment of the eye. A major problem with topical eye drops for treating posterior segment disorders is the inefficient delivery of the agent to the posterior segment sites due to the corneal and conjunctival barriers. Therefore, it is important to measure the distribution of compounds from ocular formulations in several major ocular tissues. […] This experiment used Dutch Belted rabbits. […]
Male Dutch Belted rabbits used in this experiment were purchased from Pizhou Dongfang Breeding Co., Ltd., with animal weights ranging from 1.5 to 2.5 kg. […] All prepared dosing formulations were freshly prepared on the day of administration, sampled, and the actual concentration of the dosing formulation was determined.
On the day of the experiment, animals were administered 1 mg/mL (0.05 mg/eye, 50 µL/eye). […] The concentrations of each analyte in rabbit ocular tissues and plasma obtained in this experiment were determined using an LC-MS/MS analytical method. […] BLOQ (Below the Limit of Quantification) is the lowest analyte concentration that can be quantified with acceptable precision and accuracy. […]

[4] = target: T1, VEGFR2 autophosphorylation (pVEGFR2) in HUVEC cells (Homo sapiens, UniProt P35968); test: Inhibition of VEGF-induced VEGFR2 phosphorylation in HUVEC cells (ELISA); type: cell-based; conditions: 50 ng/mL human VEGF, compound 1 hour
T1 construct: endogenous in cells; host or cells: HUVEC
Text: Assay for Compound Inhibition of VEGFR2 Phosphorylation in HUVEC Cells
VEGF is a potent growth factor that promotes angiogenesis and vascular permeability. Vascular endothelial growth factor receptor 2 (VEGFR2) is the primary receptor for VEGF-induced endothelial cell signaling. Upon ligand binding, VEGFR2 undergoes autophosphorylation and is activated. The primary function from VEGFR2 signaling is to induce blood vessel formation during development and after tissue injury, and to bypass blocked vessels. Pathologically, VEGF and VEGFR2 are involved in tumor angiogenesis and vascular leakage. They are considered major players in many different cancers and ocular diseases accompanied by pathological neovascularization. This assay uses ELISA to measure the compound's ability to inhibit VEGF-induced VEGFR2 autophosphorylation (pVEGFR2) in HUVEC cells. Table 7. Reagents and Instruments
Before cell seeding, cells reached 60%-80% confluency in cell culture flasks. The cell suspension was diluted with pre-warmed complete medium to 4.5×10^6 cells/mL. 80 microliters of cell suspension was added to all wells of a 96-well cell plate (Corning-3599); incubated overnight at 37°C and 5% CO2. Compound powder was dissolved in DMSO to 10 mM and stored in a nitrogen cabinet. Compound dilution master plate: In a 96-well V-bottom plate (Axygen- WIPP02280), reference compound Ponatinib or test compound concentrations were added, starting from 5 mM (5 microliters of 10 mM compound solution plus 5 microliters DMSO) with 3-fold serial dilutions for a total of 8 concentration points. […] 20 microliters of diluted compound was transferred from the intermediate plate to the cell plate. The cell plate was then incubated at 37°C and 5% CO2 for 1 hour. […] It was gently shaken for 30 seconds, and the absorbance was measured within 30 minutes using a SpectraMax® 340 PC 384 Absorbance Microplate Reader, reading the optical density value at 450 nm. […]
All other values are expressed as a percentage of these controls (inhibition rate). […]

[5] = target: T2, EGFR (Homo sapiens, UniProt P00533); test: Kinase inhibitory activity, Mobility Shift Assay (EGFR); type: biochemical
T2 construct: purchased Carna 08-115
Method in brief: (§1)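 Each kinase pre-incubated 10 min at room temperature, then FAM-labelled peptide with MgCl2 and ATP added; reaction at 28 °C for kinase-dependent times before stop. Substrate conversion read by mobility shift; IC50 from a four-parameter fit of % inhibition against log concentration.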

[6] = system: melanin; test: Compound binding to melanin; type: in vitro ADME; conditions: cuttlefish (Sepia officinalis), melanin suspension (1 mg/mL), percentage of free drug (not bound to melanin), 2 µM compound, melanin 1 mg/mL in PBS pH 7.4, 37°C
Method in brief: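 Compound at 2 µM final incubated with 1 mg/mL Sepia melanin in PBS pH 7.4, 37°C, 2 hours with shaking; blank in PBS with 0.1% BSA. Supernatant concentration by LC-MS/MS. Fb = 100 − (Ctest/Ccontrol) × 100%.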

[7] = target: T3, VEGFR2 (Homo sapiens, UniProt P35968); test: Kinase inhibitory activity, Mobility Shift Assay (VEGFR2); type: biochemical
T3 construct: purchased Carna 08-191
Method in brief: as §1

[8] = Ophthalmic formulations based on polyethylene glycol series vehicles: composition and state (Example 7); type: physicochemical; conditions: Table 15: 10 mg/mL; Polyethylene glycol 400 10, Hydroxypropyl-β-cyclodextrin 10, Gellan Gum Gelrite 0.3, Poloxamer 188 1, Tris solution and Citric acid
Text: In the following ophthalmic formulation preparation examples, "solution" refers to a clear, transparent liquid without visible insoluble matter. "Near-clear solution" refers to a liquid that appears close to a solution upon visual observation but may contain a small amount of insoluble particles or have a slightly opaque color. "Suspension" refers to a liquid that is visibly turbid or opaque. "Gel" refers to a completely or partially gel-like solid.
Example 7: Ophthalmic Formulations Based on Polyethylene Glycol Series Vehicles
According to the formulation composition shown in the tables below, weigh the compound powder, add it to polyethylene glycol 400, and sonicate until dissolved or nearly dissolved (heat to 50°C if necessary). Add this to a Tris-HCl buffer solution containing hydroxypropyl-β-cyclodextrin, poloxamer 188, and gellan gum (or other viscosity modifier), vortex to mix, and prepare into an eye drop formulation.

T1 sequence (P35968 20-1356): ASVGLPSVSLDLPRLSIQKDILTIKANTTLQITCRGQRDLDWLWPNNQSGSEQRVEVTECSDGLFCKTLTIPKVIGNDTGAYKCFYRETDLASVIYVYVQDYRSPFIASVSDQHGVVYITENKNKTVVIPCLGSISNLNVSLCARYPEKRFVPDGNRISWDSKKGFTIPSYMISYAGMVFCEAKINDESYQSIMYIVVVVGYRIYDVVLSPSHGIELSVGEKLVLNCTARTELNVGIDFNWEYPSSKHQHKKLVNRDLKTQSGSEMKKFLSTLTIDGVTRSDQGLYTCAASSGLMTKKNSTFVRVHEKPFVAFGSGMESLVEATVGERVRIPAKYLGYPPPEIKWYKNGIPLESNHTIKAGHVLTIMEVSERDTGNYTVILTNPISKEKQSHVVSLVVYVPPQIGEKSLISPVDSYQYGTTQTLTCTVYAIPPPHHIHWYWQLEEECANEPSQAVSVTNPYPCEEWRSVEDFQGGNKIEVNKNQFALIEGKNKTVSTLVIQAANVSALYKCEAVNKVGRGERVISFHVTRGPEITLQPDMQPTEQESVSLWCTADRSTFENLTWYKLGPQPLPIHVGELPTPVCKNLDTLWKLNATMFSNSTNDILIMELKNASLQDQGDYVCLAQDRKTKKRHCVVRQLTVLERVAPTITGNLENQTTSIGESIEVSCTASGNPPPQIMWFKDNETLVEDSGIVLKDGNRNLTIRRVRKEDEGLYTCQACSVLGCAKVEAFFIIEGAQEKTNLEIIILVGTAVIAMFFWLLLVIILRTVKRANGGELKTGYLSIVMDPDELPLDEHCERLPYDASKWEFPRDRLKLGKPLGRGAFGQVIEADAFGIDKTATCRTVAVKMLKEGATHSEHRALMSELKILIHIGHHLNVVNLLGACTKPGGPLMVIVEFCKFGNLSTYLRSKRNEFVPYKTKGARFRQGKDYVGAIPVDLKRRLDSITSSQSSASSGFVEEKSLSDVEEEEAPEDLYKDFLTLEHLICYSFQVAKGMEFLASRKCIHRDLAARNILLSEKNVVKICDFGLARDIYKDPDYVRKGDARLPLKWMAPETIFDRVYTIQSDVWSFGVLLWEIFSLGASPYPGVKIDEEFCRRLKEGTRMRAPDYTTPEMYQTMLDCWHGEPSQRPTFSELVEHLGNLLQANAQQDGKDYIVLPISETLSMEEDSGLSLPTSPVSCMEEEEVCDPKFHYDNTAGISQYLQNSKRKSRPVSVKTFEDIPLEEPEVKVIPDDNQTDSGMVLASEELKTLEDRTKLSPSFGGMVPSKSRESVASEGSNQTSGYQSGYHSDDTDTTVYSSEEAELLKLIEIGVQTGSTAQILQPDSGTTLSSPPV
T3 sequence (P35968 20-1356): as above
T2 sequence (P00533 25-1210): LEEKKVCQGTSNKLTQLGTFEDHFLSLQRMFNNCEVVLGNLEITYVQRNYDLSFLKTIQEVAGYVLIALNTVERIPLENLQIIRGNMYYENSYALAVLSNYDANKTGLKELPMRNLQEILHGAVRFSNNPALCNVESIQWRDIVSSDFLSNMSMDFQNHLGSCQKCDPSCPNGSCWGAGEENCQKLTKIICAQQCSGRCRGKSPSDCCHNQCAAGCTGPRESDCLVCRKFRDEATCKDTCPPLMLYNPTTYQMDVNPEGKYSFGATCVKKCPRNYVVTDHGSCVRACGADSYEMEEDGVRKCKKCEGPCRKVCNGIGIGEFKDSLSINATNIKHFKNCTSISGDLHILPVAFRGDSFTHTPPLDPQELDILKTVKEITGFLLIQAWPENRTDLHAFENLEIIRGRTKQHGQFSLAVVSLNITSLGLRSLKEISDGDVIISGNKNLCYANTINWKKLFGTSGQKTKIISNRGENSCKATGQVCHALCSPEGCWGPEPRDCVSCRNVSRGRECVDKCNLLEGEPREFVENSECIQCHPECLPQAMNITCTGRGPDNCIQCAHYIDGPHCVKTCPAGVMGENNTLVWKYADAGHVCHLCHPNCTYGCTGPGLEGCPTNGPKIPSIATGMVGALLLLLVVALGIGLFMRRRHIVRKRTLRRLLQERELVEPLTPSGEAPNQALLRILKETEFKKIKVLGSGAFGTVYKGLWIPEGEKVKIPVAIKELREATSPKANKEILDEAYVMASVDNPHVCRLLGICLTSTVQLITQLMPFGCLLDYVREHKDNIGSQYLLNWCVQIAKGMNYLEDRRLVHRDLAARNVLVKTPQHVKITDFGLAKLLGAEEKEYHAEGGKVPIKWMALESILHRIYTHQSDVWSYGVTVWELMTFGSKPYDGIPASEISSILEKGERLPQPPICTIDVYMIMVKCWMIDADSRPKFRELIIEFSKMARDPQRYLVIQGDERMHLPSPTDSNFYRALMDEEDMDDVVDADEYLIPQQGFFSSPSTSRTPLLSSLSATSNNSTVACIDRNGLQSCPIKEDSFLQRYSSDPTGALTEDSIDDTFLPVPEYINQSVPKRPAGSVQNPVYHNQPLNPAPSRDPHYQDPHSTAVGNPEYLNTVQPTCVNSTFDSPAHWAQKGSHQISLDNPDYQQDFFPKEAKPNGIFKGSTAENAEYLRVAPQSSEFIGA

Row | solubility thermodynamic at 8 h ([2]; positive compound) | IC50 [4] | IC50 [5] | fraction unbound at 2 h, 2 µM [6] | IC50 [7] | State Description: pH [8] | State Description: state [8] | solubility at 8 h ([2]; thermodynamic solubility, room temperature, 8 hours shaking, buffers pH 2.0, 6.5, 7.4 used, pH of the tabulated value not given) | Compound | solubility [1] | drug concentration in retina [3]
1 | < 2 µg/mL | – | – | – | – | – | – | – | CNC(=O)c1ccccc1Sc1ccc2c(/C=C/c3ccccn3)n[nH]c2c1 [Axitinib] | < 2 µg/mL | below the lower limit of quantification; also recorded: below BLOQ
2 | – | ≤ 1 nM | 6000 to 60000 nM | 0.01 to 0.05 | ≤ 1 nM | ~5.5 | gel | – | CCN(CC)CCc1ccc(/C=C/c2n[nH]c3cc(Sc4ccccc4C(=O)NC4CC4)ccc23)nc1 [Compound I-77, N-cyclopropyl-2-({3-[(E)-2-{5-[2-(diethylamino)ethyl]pyridin-2-yl}ethenyl]-1H-indazol-6-yl}sulfanyl)benzamide] | – | –
3 | – | ≤ 1 nM | 6000 to 60000 nM | > 0.05 | 1 to 10 nM | – | – | 546 µg/mL (≈ 1080 µM) | CCNC(=O)c1cc(F)ccc1Sc1ccc2c(/C=C/c3ccc(CN(CC)CC)cn3)n[nH]c2c1 [Compound I-88] | – | –
